# Measured values as given in PubChem BioAssay AID179 (DTP/NCI, 2004).
# Values joined by “and” are separate entries in the source; they are usually repeats but may differ in a detail not shown here. Identical values can stand only once. Active and inactive are the calls of the source.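 The calls were made as follows: active = compounds giving half or more protection of infected cells from virus-caused growth loss, again on retest; inactive = the rest.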
# Tested on: CEM cells HIV-1 protection, formazan growth assay
# Assay: NCI AIDS Antiviral Assay
# Conditions: for IC50: measured here: growth of uninfected CEM cells
# Outline: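 Screen of anti-HIV-1 activity in human CEM cells using a formazan-based growth measurement at five drug concentrations. Hits with 50% or greater protection were repeated, and confirmation required reproducible complete protection.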
Structure (SMILES),EC50,IC50,outcome
Cc1ccc(O)c(C(c2cccc(C(c3cc(C)ccc3O)c3cc(C)ccc3O)c2)c2cc(C)ccc2O)c1,> 20 µM,3.31 µM,
CC1(Cl)CC(O)C2(CC1Br)C1(C)OC1C1OC1(Br)C2(C)C (stereo unspecified),> 200 µM,15.1 µM,
CCOC(=O)C(=Cc1cccc(Br)c1)C(=O)OCC,> 759 µM,468 µM,
NCCn1c(-c2ccccc2)nc2ccccc2c1=O,> 200 µM,123 µM,
CN1c2ccccc2S(=O)(=O)n2c(CCc3ccccc3)nnc21,> 105 µM,> 105 µM,
C=CCOc1ccc(C2C(C(=O)OC)C(=O)CC(O)(c3ccccc3)C2C(=O)OC)cc1OC (stereo unspecified),> 100 µM,> 100 µM,
CCN(CC)c1ccc2c(c1)Oc1cc(N(CC)CC)ccc1C21c2ccccc2C(=O)N1c1ccccc1,> 200 µM,> 200 µM,
N#CSCC1COc2ccccc2O1 (stereo unspecified),> 200 µM,1.23 µM,
O=C1c2ccccc2C(=O)N1CCSCC(CO)SCCN1C(=O)c2ccccc2C1=O (stereo unspecified),191 µM,> 200 µM,
O=c1c(-c2c(O)cc(O)c3c2O[C@H](c2ccc(O)cc2)[C@@H](O)C3)c(-c2ccc(O)cc2)oc2cc(O)cc(O)c12,> 200 µM and 31.6 µM,75.9 µM and > 100 µM,
CC1CC(=O)C(CC(=O)O)[C@H]1C(C(=O)C(=O)Nc1cc(Cl)ccc1Cl)[N+](=O)[O-] (stereo partly specified),,,inactive
CNc1cc[nH]c(=O)c1NC(C)=O,> 1380 µM,> 1380 µM,
CCOC(=O)NC(OCc1ccccc1)(C(=O)OC)C(F)(F)F (stereo unspecified),> 200 µM,> 200 µM,
Cc1cc(N=C2C=C(Nc3cc(C)on3)C(=O)c3ccccc32)no1,> 11.2 µM,> 11.2 µM,
O=C1c2cc3c(cc2CC12Cc1ccc4c(c1C2=O)CCC4)CCC3 (stereo unspecified),> 200 µM,> 200 µM,
c1ccc2c(c1)nnn1c3cnccc3nc21,> 58.9 µM,6.76 µM,
Nc1c(-c2ccccc2)oc2ccccc2c1=O,> 200 µM,> 200 µM,
Cc1oc2ccccc2c(=O)c1CN1CCN(c2ccccn2)CC1,> 214 µM,129 µM,
O=c1c2cccnc2ncn1CCCN1CCOCC1,,,inactive
CC(=O)C(/C=N\C(N)=S)=C(\C)O,> 200 µM,> 200 µM,
COC(=O)/C(=N\NC(C)(C)C)C(C(=O)C(=O)Nc1cc(C)ccc1C)c1nc2ccccc2[nH]c1=O (stereo unspecified),,,inactive
CCOC(=O)N1C(=S)C(C(=O)OC)(C(=O)OC)N=C1C,> 200 µM,> 200 µM,
Clc1nc(Cl)c2sc(=[Se])sc2n1,> 200 µM,8.51 µM,

Structure (SMILES),EC50,IC50,outcome
O=C(O)Cn1cc([N+](=O)[O-])c(=O)c2ccccc21,> 200 µM,> 200 µM,
CCCCNC(=S)N/N=C/c1cccc(C)n1,> 200 µM,12 µM,
CC(C)NS(=O)(=O)c1ncnc2nc[nH]c12,,,inactive
COc1ccc2c3c(c4cc(OC)c(OC)cc4c2c1)C[C@H]1CCCCN1C3,> 31.6 µM,0.01 µM,
O=C(O)C12CCCC(CCC1)C2,,,inactive
Cc1[nH]n(-c2nc3c(c(=O)[nH]2)CCCC3)c(=O)c1CCO,> 200 µM,129 µM,
COc1ccc(C(=O)C(c2ccc(OC)cc2)C2(O)C(=O)Nc3c(C)cc(Cl)cc32)cc1 (stereo unspecified),> 79.4 µM,> 79.4 µM,
CCCCN=C(c1ccccc1)N1CCOCC1,> 200 µM,> 200 µM,
Cc1ccc(S(=O)(=O)n2c3c(c4ccccc42)CCN2C(=O)C(S(=O)(=O)c4ccccc4)=CCC32)cc1 (stereo unspecified),> 200 µM,0.589 µM,
Cc1cc[n+]2cc(-c3ccc(/C=N/N=C(N)N)cc3)n(C)c2c1,52.5 µM,55 µM,
N[C@@H]1c2c(Br)sc(Br)c2C(=O)[C@H]1Br,> 200 µM,23.4 µM and 26.9 µM,
CC1=C(\C=C/C(C)=C/C=C/C(C)=C/C=C/C=C(C)\C=C\C=C(C)/C=C/C2=C(C)CCCC2(C)C)C(C)(C)CCC1,> 200 µM,97.7 µM,
Nc1nc(N)c(CCCCc2ccccc2)c(C=O)n1,,,inactive
CCCCCCC(=O)C(O)C(O)C(=O)CCCCCCCC(=O)O (stereo unspecified),> 200 µM,97.7 µM,
CC(C)(C)C1=C(Br)C(F)(C(C)(C)C)OP1(=O)c1ccccc1 (stereo unspecified),> 200 µM,25.7 µM,
COc1c(Cl)cc(S(=O)O)cc1Cl,,,inactive
C[C@]12Cc3cn[nH]c3C(=O)C1CC[C@@H]1C2CC[C@@]2(C)C1CC[C@]2(C)O (stereo partly specified),> 38 µM,> 38 µM,
Nc1c(Cl)c([N+](=O)[O-])cc2c1OCCCCO2,> 200 µM,123 µM,
C(=C\C(SCc1ccccc1)SCc1ccccc1)/c1ccccc1,> 200 µM,> 200 µM,
C/C(CC(=O)Nc1cc(C)ccc1C)=N\NC(=O)c1ccncc1,> 398 µM,20.9 µM,
C[C@H]1OCN(C(=O)c2cc3ccccc3cc2SSc2cc3ccccc3cc2C(=O)N2CO[C@H](C)[C@H]2C(=O)O)[C@@H]1C(=O)O,> 100 µM,> 100 µM,
O=C(Nc1ccccc1)N1CCNC1=S,162 µM,> 200 µM,
CC1(C)OCN(c2ccc(Cl)cc2)Cn2c1nc1ccccc12,> 200 µM,28.8 µM,

Structure (SMILES),EC50,IC50,outcome
O=C1NC(=O)c2c3ccc(c21)CCc1ccc(c2c1C(=O)NC2=O)CC3,> 15.1 µM,> 15.1 µM,
COc1ccc(Nc2c(C#N)c3n(c4ccccc24)c2ccccc2[n+]3C)cc1OC,> 200 µM,3.09 µM,
COc1ccc(CC2Cc3ccccc3CCN2)cc1OC (stereo unspecified),,,inactive
CC(C)(C)[Si](C)(C)OC[C@H]1O[C@@H](n2ccc(=O)[nH]c2=O)C(O[Si](C)(C)C(C)(C)C)[C@]12CCN(O)CO2 (stereo partly specified),> 200 µM,11.5 µM,
NC1=NC(=O)C(CC(=O)Nc2ccc([N+](=O)[O-])cc2[N+](=O)[O-])S1 (stereo unspecified),> 75.9 µM,> 75.9 µM,
Cn1nc(-c2ccc(Cl)cc2)[n+]([O-])c2c(=O)n(C)c(=O)nc1-2,> 200 µM,3.31 µM,
Cc1ccc([S+](c2ccccc2)c2cc(C)ccc2C)cc1 (stereo unspecified),> 646 µM,1.17 µM,
CC1C=C(Sc2ccccc2)C(=O)O1 (stereo unspecified),> 468 µM,25.1 µM,
Cc1ccc(CCC(=O)C(=O)O)s1,> 479 µM,> 479 µM,
CNc1ccc(Cl)cc1C(=O)N1CCC[C@H]1CO,> 200 µM,> 200 µM,
O=c1[nH]c2nc3ccccc3c(=O)n2/c1=C/c1ccc(Cl)cc1,> 200 µM,11.2 µM,
C=C(CC)C[C@@H]1C[C@]2(C(=O)OC)c3[nH]c4ccccc4c3CCN2C1=O,> 200 µM,36.3 µM,
N#CC(C#N)=Cn1ccc(=O)[nH]c1=S,> 200 µM,> 200 µM,
COc1ccccc1C(=O)NCC1CCCN2CCCCC12 (stereo unspecified),> 200 µM,> 200 µM,
COC(=O)c1ccccc1/C=C1\Cc2ccc(C)c(C)c2C1=O,> 200 µM,> 200 µM,
COC1(OC)CCCCC2c3cccc(OC(C)=O)c3C21OC(C)=O (stereo unspecified),72.4 µM,214 µM,
CCC1C(=O)OCc2c1cc1n(c2=O)C(CC)c2c-1nc1ccccc1c2Cl (stereo unspecified),> 10 µM,4.68 µM,
COC1OC(OCCC#N)C(OCCC#N)C(OCCC#N)C1OCCC#N (stereo unspecified),> 200 µM,> 200 µM,
CSc1ncc2c(C#N)c3sc4ccccc4n3c(=O)c2n1,> 200 µM,> 200 µM,
O=C1NC(=O)C2(CCCCC2)N1,> 200 µM,> 200 µM,
CC(=O)OCCC1c2ccccc2-n2nc(-c3ccccc3)c(O)c21 (stereo unspecified),> 200 µM,11.2 µM,
Cc1cc(S(=O)(=O)N2CCNNC2=O)c(S)cc1Cl,27.5 µM,50.1 µM,
CCOc1csc([C@H]2CCC3[C@@H]4CC=C5C[C@@H](OC(C)=O)CC[C@]5(C)C4CC[C@@]32C)n1 (stereo partly specified),> 56.2 µM,> 56.2 µM,

Structure (SMILES),EC50,IC50,outcome
COc1cccc2c1CCc1cc3c(N)nc(N)nc3nc1-2,> 200 µM,5.25 µM,
COc1ccccc1C1c2cc3c(cc2OC(N2CCCC2)C1C)OCO3 (stereo unspecified),> 200 µM,16.2 µM,
O=C1C2CC3OC3CC2C(=O)N1CCN1C(=O)C2CC3OC3CC2C1=O (stereo unspecified),> 10.5 µM,> 10.5 µM,
O=c1c2cccnc2n2n1Cc1ccccc1C2,> 200 µM,151 µM,
CCc1ccccc1NC(=O)C1=C(C)NC(C)=C(C(=O)Nc2ccccc2CC)C1c1ccccc1Cl,> 10 µM,> 10 µM,
Cc1ccc(S(=O)(=O)C2=c3ncccc3=C3C(=O)c4ccccc4C(=O)C32)cc1 (stereo unspecified),,,inactive
CSC(=NCCN=C(NS(=O)(=O)c1ccc(Cl)cc1)SC)NS(=O)(=O)c1ccc(Cl)cc1,> 200 µM,> 200 µM,
C/C(=N\NC(=S)N1CCN(C2CCCCCC2)CC1)c1ccccn1,> 138 µM,0.955 µM,
O=C(Cc1nc2ccc(C(=O)c3ccccc3)cc2[nH]c1=O)C(=O)Nc1ccc(Br)cc1,> 14.8 µM,> 14.8 µM,
COc1ccc(/C(C)=N/Nc2ccc([N+](=O)[O-])cc2[N+](=O)[O-])cc1,,,inactive
C[C@@H]([C@H]1CC[C@@]2(C)[C@@H]3CC[C@@H]4C(=CC3=CC[C@]12C)CC[C@H](N(C)C)C4(C)C)N(C)C,> 200 µM,> 200 µM,
Cc1nc(N)sc1C(=O)/C=C/c1ccc(/C=C/C(=O)c2sc(NC(=O)CCCCCCCCC(=O)Nc3nc(C)c(C(=O)/C=C/c4ccc(/C=C/C(=O)c5sc(N)nc5C)cc4)s3)nc2C)cc1,> 251 µM,162 µM,
CN1CCC(CNC(=O)CCCCCCCCC(=O)NCC2(c3ccccc3)CCN(C)CC2)(c2ccccc2)CC1,97.7 µM and > 100 µM,> 100 µM,
CCc1cccc(C(C)C)c1NC(=O)C(=O)C(CC(=O)Nc1ccc(Cl)c(Cl)c1)C(=O)OC (stereo unspecified),> 10.7 µM,> 10.7 µM,
Cn1nnc2c(C(N)=O)ncn2c1=O,> 1290 µM,776 µM,
C[n+]1cccc(O)c1,,,inactive
COc1cccc(/C=C\C#N)c1,> 316 µM,> 316 µM,
OCC1=CCC2c3[nH]c4ccccc4c3CCN2C1 (stereo unspecified),> 372 µM,> 372 µM,
COc1cccc2c1C(=O)c1c(O)c3c(c(O)c1C2=O)C[C@@](O)(/C(C)=N\O)C[C@@H]3OC1CC(N)C(O)C(C)O1 (stereo partly specified),> 0.2 µM,0.0646 µM,
CSc1nc2c(nc(N)n2C2OC(CO)C(O)C(O)C2O)c(=O)[nH]1 (stereo unspecified),,,inactive
